Drawing on patent US7998969B2, “Non-nucleoside reverse transcriptase inhibitors” (Roche Palo Alto LLC, priority 2006, dated 2011), this text covers IC50 and melting point for ten compounds.

Each structure is given as a SMILES string. Read-outs that look alike come from different tables or passages of the source.

The test system of data set [1] is wild-type laboratory strain HIV-1HXB2. Description: Recombinant HIV-1 Antiviral Assay (MTT cell viability assay with MT-4 cells). Format: cell-based. As to conditions: Human immunodeficiency virus 1, MT4, 120 h. Here is the method:
Recombinant HIV-1 Antiviral Assay
The sensitivity of a wild-type laboratory strain HIV-1HXB2 to described compounds was determined by the 3-[4,5-dimethylthiazol-2yl]-2,5-diphenyltetrazolium bromide (MTT) cell viability assay with MT-4 cells (R. Pauwels et al., “Rapid and automated tetrazolium-based colorimetric assay for the detection of anti-HIV compounds,” J. Virological Methods 1988 20:309-321). Briefly, MT-4 cells were incubated with virus (MOI 0.0001) for 1 h at 37° C. and then resuspended at 7.5×10^5/mL in RPMI 1640 (with out phenol) (Gibco) with 10% FCS and antibiotics and plated out onto a 96 well plate (Corning Costar, USA). After 5 days incubation 20 μL of MTT (Sigma-Aldrich) (5 mg/mL in PBS) was added and the plates were incubated for 2 h before the addition of 170 μL of acidified IPA. The absorbance was measured at 540 nm and the TCID50 determined by Spearman-Karber method.
(In general: Tetrazolium dyes change colour on reduction, which living cells bring about.)

Data set [2] addresses HIV-1 reverse transcriptase (HIV-RT enzyme) (Human immunodeficiency virus type 1 group M subtype B, UniProt P03366). Description: HIV-1 Reverse Transcriptase Assay Inhibitor IC50 Determination (RNA-dependent DNA polymerase activity, SPA). It is filed as biochemical. The procedure:
HIV-1 Reverse Transcriptase Assay Inhibitor IC50 Determination
RNA-dependent DNA polymerase activity was measured using a biotinylated primer oligonucleotide and tritiated dNTP substrate. Newly synthesized DNA was quantified by capturing the biotinylated primer molecules on streptavidin coated Scintillation Proximity Assay (SPA) beads (Amersham). The sequences of the polymerase assay substrate were: 18 nt DNA primer, 5′-Biotin/GTC CCT GTT CGG GCG CCA-3′; 47 nt RNA template, 5′-GGGUCUCUCUGGUUAGACCACUCUAGCAGUGGCGCCCGAACAGGGAC-3′. The biotinylated DNA primer was obtained from the Integrated DNA Technologies Inc. and the RNA template was synthesized by Dharmacon. The DNA polymerase assay (final volume 50 μl) contained 32 nM biotinylated DNA primer, 64 nM RNA substrate, dGTP, dCTP, dTTP (each at 5 μM), 103 nM [^3H]-dATP (specific activity=[…]), in 45 mM Tris-HCl, pH 8.0, 45 mM NaCl, 2.7 mM Mg(CH3COO)2, 0.045% Triton X-100 w/v, 0.9 mM EDTA. The reactions contained 5 μl of serial compound dilutions in 100% DMSO for IC50 determination and the final concentrations of DMSO were 10%. Reactions were initiated by the addition of […] of the HIV-RT enzyme (final concentrations of 1-3 nM). Protein concentrations were adjusted to provide linear product formation for at least 30 min of incubation. After incubation at 30° for 30 min, the reaction was quenched by addition of 50 μl of 200 mM EDTA (pH 8.0) and 2 mg/ml SA-PVT SPA beads (Amersham, RPNQ0009, reconstituted in 20 mM Tris-HCl, pH 8.0, 100 mM EDTA and 1% BSA). The beads were left to settle overnight and the SPA signals were counted in a 96-well top counter-NXT (Packard). IC50 values were obtained by sigmoidal regression analysis using GraphPad Prism 3.0 (GraphPad Software, Inc.).

[3] abbreviates: MT-4 cells infected with HIV-1HXB2, MTT readout after 5 days, read-out: Antiviral Activity IC50.
[4] abbreviates: SPA polymerase assay, 30 min at 30°, read-out: HIVRT inhibition IC50.

Usually IC50 stands for the midpoint of a concentration-inhibition curve. On to `Cc1cc(C#N)cc(C)c1Oc1ccnc(NC2CCN(c3cccc(S(N)(=O)=O)c3)CC2)n1` [IV-3], for which the IC50 came out at 0.0004 µM in data set [1] (setting [3]) and 14.7 nM in data set [2].
Take `Cc1cc(C#N)cc(C)c1Nc1nc(NC2CCN(c3cccc(C#N)c3)CC2)ncc1Br` [V-3]: in data set [2] (setting [4]), the half-maximal inhibitory concentration (IC50) stood at 40 nM.
The term melting point denotes the temperature, or range, at which the solid turns liquid. In the case of `Cc1cc(C#N)cc(C)c1Oc1nc(NC2CCN(Cc3ccccc3)CC2)ncc1Br` [I-2, 4-[2-(1-Benzyl-piperidin-4-ylamino)-5-bromo-pyrimidin-4-yloxy]-3,5-dimethyl-benzonitrile], the melting point lay in the range of 158 to 159.8 °C.
For `Cc1cc(C#N)cc(C)c1Oc1ccnc(NC2CCN(Cc3ccc(S(C)(=O)=O)cc3)CC2)n1` [I-3, 4-{2-[1-(4-Methanesulfonyl-benzyl)-piperidin-4-ylamino]-pyrimidin-4-yloxy}-3,5-dimethyl-benzonitrile], the concentration for half-maximal inhibition (IC50) in data set [1] (setting [3]) was 0.003 µM; in data set [2], 34.1 nM.
Consider `Cc1cc(C#N)cc(Cl)c1Oc1nc(NC2CCN(c3cccc(C(N)=O)c3)CC2)ncc1Br` [IV-13], for which the concentration for half-maximal inhibition (IC50) was 0.0058 µM in data set [1] (setting [3]) and 27.9 nM in data set [2].
Take `Cc1cc(C#N)cc(C)c1Oc1ccnc(NC2CCN(c3cc(Cl)cc(C#N)c3)CC2)n1` [IV-23]: the IC50 in data set [2] (setting [4]) was determined as 37.7 nM.
`Cc1cc(C#N)cc(C)c1Nc1ccnc(NC2CCN(Cc3ccc(S(C)(=O)=O)cc3Cl)CC2)n1` [III-1, 4-{2-[1-(2-Chloro-4-methanesulfonyl-benzyl)-piperidin-4-ylamino]-pyrimidin-4-ylamino}-3,5-dimethyl-benzonitrile]: the IC50 is 0.0022 µM in data set [1] (setting [3]) and 25.7 nM in data set [2].
`Cc1cc(C#N)cc(C)c1Oc1nc(NC2CCN(Cc3ccc(S(N)(=O)=O)cc3Cl)CC2)nc(N)c1Br` [II-1]: the figures for the IC50 in data set [1] (read-out: Antiviral Activity IC50(μM)) and in data set [2] (setting [4]) were 0.0086 µM and 105 nM, respectively.
Take `Cc1cc(C#N)cc(C)c1Nc1nc(NC2CCN(c3cccc(C(N)=O)c3)CC2)ncc1Br` [V-5]: the results for the half-maximal inhibitory concentration (IC50) in data set [1] (setting [3]) and in data set [2] were 0.0015 µM and 28.1 nM, respectively.
Consider `Cc1cc(C#N)cc(C)c1Oc1ccnc(NC2CCN(Cc3ccccc3)CC2)n1` [I-1, 4-[2-(1-Benzyl-piperidin-4-ylamino)-pyrimidin-4-yloxy]-3,5-dimethyl-benzonitrile], for which the melting point was 162 to 163.3 °C.
